Laboratory results from patent US11730746B2, “17beta-heterocyclyl-digitalis like compounds for the treatment of heart failure” (priority 2018, dated 2023).
Read-outs that look alike come from different tables or passages of the source. Marks after values point to notes of the source that are not given here.

Experiments:
dog renal Na,K-ATPase = target: T1, dog renal Na,K-ATPase (Canis lupus familiaris, UniProt P50997); test: Inhibition of dog renal Na,K-ATPase activity (32P-ATP release); type: biochemical
T1 construct: incubated with 0.3 μg of purified dog kidney enzyme; from tissue; host or cells: dog kidney outer medulla
Method: Kidneys were sliced and the outer medulla was dissected, pooled and suspended (1 g/10 ml) in a sucrose-histidine solution, containing 250 mM sucrose, 30 mM histidine and 5 mM EDTA, pH 7.2 and homogenized. […] The pellet was suspended in the sucrose-histidine buffer and incubated for 20 min with a sodium-dodecyl-sulphate (SDS) solution dissolved in a gradient buffer, containing 25 mM imidazole and 1 mM EDTA, pH 7.5. […] The pellet was suspended in the gradient buffer.
Increasing concentrations of the standard ouabain, or tested compound, were incubated with 0.3 μg of purified dog kidney enzyme for 10 min at 37° C. in 120 μl final volume of a medium, containing 140 mM NaCl, 3 mM MgCl2, 50 mM Hepes-Tris, 3 mM ATP, pH 7.5. […] The inhibitory activity was expressed as percent of the control samples carried out in the absence of ouabain or tested compound.

SERCA2a = target: T2, SERCA2a (Canis lupus familiaris, UniProt O46674); test: SERCA2a ATPase activity in heart-derived SR microsomes from normal dog; type: biochemical; conditions: for Vmax (SERCA2a ATPase activity): mean ± SD
T2 construct: pre-incubated with 2 μg of microsomes; from tissue; host or cells: dog heart left ventricle, SR microsomes
T2 sequence (O46674 whole entry): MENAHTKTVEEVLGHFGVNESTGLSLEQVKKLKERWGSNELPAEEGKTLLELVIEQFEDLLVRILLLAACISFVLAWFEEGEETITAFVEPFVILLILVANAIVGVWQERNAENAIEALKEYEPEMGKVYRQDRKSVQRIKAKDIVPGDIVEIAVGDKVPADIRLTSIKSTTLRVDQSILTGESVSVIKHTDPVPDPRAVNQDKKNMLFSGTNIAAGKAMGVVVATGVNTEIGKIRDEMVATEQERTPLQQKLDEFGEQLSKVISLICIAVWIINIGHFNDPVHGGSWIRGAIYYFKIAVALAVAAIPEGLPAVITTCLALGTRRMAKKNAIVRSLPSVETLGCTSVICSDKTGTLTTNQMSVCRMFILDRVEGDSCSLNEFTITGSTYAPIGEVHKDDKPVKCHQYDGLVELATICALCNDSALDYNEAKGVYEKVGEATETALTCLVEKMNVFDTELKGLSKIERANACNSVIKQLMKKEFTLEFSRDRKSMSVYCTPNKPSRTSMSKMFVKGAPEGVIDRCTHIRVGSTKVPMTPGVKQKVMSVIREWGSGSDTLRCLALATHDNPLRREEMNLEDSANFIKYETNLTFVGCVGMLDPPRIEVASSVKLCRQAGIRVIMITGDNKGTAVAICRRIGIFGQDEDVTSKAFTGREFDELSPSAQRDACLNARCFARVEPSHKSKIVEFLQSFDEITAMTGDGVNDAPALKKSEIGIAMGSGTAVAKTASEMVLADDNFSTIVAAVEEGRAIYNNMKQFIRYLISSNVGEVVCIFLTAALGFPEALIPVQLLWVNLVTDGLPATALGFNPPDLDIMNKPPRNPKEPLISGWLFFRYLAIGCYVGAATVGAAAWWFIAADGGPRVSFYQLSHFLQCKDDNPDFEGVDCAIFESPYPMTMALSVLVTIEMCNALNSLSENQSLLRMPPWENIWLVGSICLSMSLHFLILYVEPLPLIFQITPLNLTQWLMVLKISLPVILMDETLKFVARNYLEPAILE
Method: Left ventricle tissues were dissected, homogenized in 4 volumes of 10 mM NaHCO3, pH 7, 1 mM PMSF, 10 μg/ml Aprotinin and Leupeptin and centrifuged at 12,000 g for 15 minutes, as published (Nediani C. et al. J Biol Chem. 1996; 271:19066-73). Supernatants were filtered and centrifuged at 100,000 g for 30 min. Contractile proteins were extracted by suspending the pellets with 0.6 M KCl, 30 mM Histidine, pH 7 and further centrifugation at 100,000 g for 30 min. Final pellets were reconstituted with 0.3 M Sucrose, 30 mM Histidine, pH 7.
SERCA2a activity was measured “in vitro” as ^32P-ATP hydrolysis at different Ca^2+ concentrations (100-4000 nM) in the absence and presence of the tested compounds, as described (Micheletti R. et al. Am J Card 2007; 99:24A-32A). Increasing concentrations of each compound (from 1 to 100 nM) were pre-incubated with 2 μg of microsomes for 5 min at 4° C. in 80 μl of a solution containing 100 mM KCl, 5 mM MgCl2, 1 μM A23187, 20 mM Tris, pH 7.5. Then, 20 μl of 5 mM Tris-ATP containing 50 nCi of ^32P-ATP (3-10 Ci/mmol, Perkin Elmer) were added. The ATP hydrolysis was continued for 15 min at 37° C. and the reaction was stopped by acidification with 100 μl of 20% v/v ice-cold perchloric acid. ^32P was separated by centrifugation with activated charcoal (Norit A, SERVA) and the radioactivity was measured. SERCA2a-dependent activity was identified as the portion of total hydrolytic activity inhibited by 10 μM cyclopiazonic acid (Seidler N W. et al. J Biol Chem. 1989; 264:17816-23).
Dose-response curves were fitted by using a sigmoidal curve fitting software and the maximal velocity (Vmax) activity and the Kd Ca^2+ were calculated (Synergy Software KaleidaGraph 3.6).

[1] = tested on: guinea pig isolated cardiomyocytes; test: SR Ca2+ uptake function (loading protocol) in isolated ventricular cardiomyocytes; type: cell-based; conditions: 100 nM
Method: The compounds were characterized for their effect on (i) SR Ca^2+ uptake function, (ii) action potential (AP) in myocytes freshly dissociated from guinea-pig ventricles by retrograde coronary perfusion with enzymatic solution (Rocchetti M et al. J Pharmacol Exper Therap 2005; 313(1):207-215).
Drug effects on SR Ca^2+ uptake rate were evaluated with an SR “loading protocol” specifically devised to rule out the contribution of the Na/Ca exchanger (NCX) and to assess the uptake rate starting at low levels of SR Ca^2+ loading. Under voltage-clamp conditions, intracellular Ca^2+ concentration was dynamically measured by epifluorescence (Fluo4-AM). Membrane current, whose time-dependent component mainly reflected ICaL, was simultaneously recorded. The SR loading protocol consisted in emptying the SR (by a brief caffeine pulse) and then progressively refilling it by voltage steps activating Ca^2+ influx through the sarcolemmal Ca^2+ channel (ICaL). NCX was blocked by omission of Na^+ from intracellular and extracellular solutions. The procedure is in agreement with published methods, with minor modifications (Rocchetti M et al. J Pharmacol Exper Therap 2005; 313(1):207-215).
Drug effects on SR Ca^2+ uptake were analysed by considering multiple parameters: 1) the rate at which Ca^2+ transient (CaT) amplitude increased during the loading protocol, which reflects the rate at which the SR refilled and 2) the time constant of cytosolic Ca^2+ decay (Tdecay) within each pulse, reflecting net Ca^2+ transport rate (by SERCA2a) across the SR membrane (a decrease in Tdecay corresponds to enhanced SR Ca^2+ uptake).

guinea pig = test: Haemodynamics: inotropic and lethal dose in guinea pig; type: in vivo; conditions: i.v. infusion 0.3 mg/kg/min
Method: Guinea-pigs (400-450 g) were anaesthetized with urethane (1.5 g/kg ip). A microtip pressure transducer was introduced into the left ventricle through the right carotid artery to measure ventricular pressure (LVP); the transducer was coupled with a transducer amplifier. Recordings were fed to a polygraph and analyzed. A polythene cannula was inserted into a jugular vein for drug infusion. After a stabilization period, the test substance was injected at the rate of 0.16 ml/min for 90 min (Micheletti R et al. J Pharmacol Exp Ther 2002; 303:592-600).
The following parameters were obtained: heart rate (HR), left ventricular pressure (LVP), maximal velocity of pressure rise (+dP/dtmax) and decay (−dP/dtmax), ECG. For inotropy, the time elapsed until +dP/dtmax increased by 80% was identified in order to determine the ED80 (dose increasing basal +dP/dtmax by 80%). The time to the maximum increase in +dP/dtmax was also identified to determine the maximum effective dose, EDmax. Lusitropy was characterized by the dose inducing the maximum decrease in −dP/dtmax, (EDmax). As indexes of toxicity, the dose administered until the onset of arrhythmias and the dose inducing death (LD) were calculated. The safety ratio for the tested compound was also calculated as the ratio between LD and ED80.

[2] = purified dog kidney enzyme, read-out: IC50, inhibition of dog renal Na,K-ATPase

| SMILES | IC50 (dog renal Na,K-ATPase) | % increase vs Control (SERCA2a Vmax) (SERCA2a; compound 1 nM) | Vmax (SERCA2a ATPase activity) (SERCA2a; compound 1 nM) | % increase vs Control (SERCA2a Vmax) (SERCA2a; compound 10 nM) | Vmax (SERCA2a ATPase activity) (SERCA2a; compound 10 nM) | % increase vs Control (SERCA2a Vmax) (SERCA2a; compound 100 nM) | Vmax (SERCA2a ATPase activity) (SERCA2a; compound 100 nM) | IC50 (dog renal Na,K-ATPase; [2]) | further results |
| --- | --- | --- | --- | --- | --- | --- | --- | --- | --- |
| C[C@]12CC[C@H](O)C[C@H]1CCC1C2CC[C@]2(C)[C@@H](c3csc(N=C(N)N)n3)CC[C@]12O (stereo partly drawn) [CVie 102, 3β-hydroxy-5β-10β-methyl-13β-methyl-14β-hydroxy-17β-(2-guanidino-thiazol-4-yl)androstane] | 1700 nM | 25%* | 2.949 ± 0.321 (n = 6) μmol/min/mg prot | 13%* | 2.660 ± 0.232 (n = 12) μmol/min/mg prot |  |  |  | rate of Ca2+ transient (CaT) increment during SR reloading ([1]; FIG. 1A, 1C): increased; time constant of cytosolic Ca2+ decay within each pulse (τdecay) ([1]; FIG. 1B, 1D): reduced; Dead/treated number (guinea pig): 11/11; ED80 (guinea pig): 3.8 mg/kg; Lethal dose (guinea pig): 12.57 mg/kg; E max % increase in dP/dtmax (guinea pig; 90 min): 138.3%; ED max (guinea pig; cumulative dose): 8.6 mg/kg; LD/ED80 (guinea pig; safety ratio): 5.42 |
| C[C@]12CC[C@H](O)C[C@H]1CCC1C2CC[C@]2(C)[C@@H](c3cc[nH]n3)CC[C@]12O (stereo partly drawn) [CVie 103, 3β-hydroxy-5β-10β-methyl-13β-methyl-14β-hydroxy-17β-(pyrazol-3-yl)androstane] | 4000 nM |  |  | 11%* | 2.569 ± 0.278 (n = 7) μmol/min/mg prot | 16%* | 2.688 ± 0.285 (n = 7) μmol/min/mg prot |  |  |
| C[C@]12[C@H](O)CC3C(CC[C@@H]4C[C@@H](O)CC[C@]34C)[C@@]1(O)CC[C@@H]2c1c[nH]cn1 (stereo partly drawn) [CVie 104, 3β-hydroxy-5β-10β-methyl-12β-hydroxy-13β-methyl-14β-hydroxy-17β-(imidazol-4-yl)androstane] |  | 11%* | 1.437 ± 0.158 (n = 4) μmol/min/mg prot | 20%* | 1.551 ± 0.275 (n = 4) μmol/min/mg prot |  |  | 1610 nM |  |
| C[C@]12[C@H](O)CC3C(CC[C@@H]4C[C@@H](O)CC[C@]34C)[C@@]1(O)CC[C@@H]2c1csc(N=C(N)N)n1 (stereo partly drawn) [CVie 105, 3β-hydroxy-5β-10β-methyl-12β-hydroxy-13β-methyl-14β-hydroxy-17β-(2-guanidino-thiazol-4-yl)androstane] | 530 nM |  |  |  |  |  |  |  |  |
| C[C@]12CC[C@H](O)C[C@H]1CCC1C2CC[C@]2(C)[C@@H](c3cn(CCCN)cn3)CC[C@]12O (stereo partly drawn) [CVie 106, 3β-hydroxy-5β-10β-methyl-13β-methyl-14β-hydroxy-17β-(N-(3-aminopropyl)-imidazol-4-yl)androstane] |  | 22% * | 3.113 ± 0.157 (n = 3) μmol/min/mg prot | 15% | 2.935 ± 0.403 (n = 3) μmol/min/mg prot |  |  | 10000 nM |  |
| C[C@]12CC[C@H](O)C[C@H]1CCC1C2CC[C@]2(C)[C@@H](c3cc(CCCN)on3)CC[C@]12O (stereo partly drawn) [CVie 107, 3β-hydroxy-5β-10β-methyl-13β-methyl-14β-hydroxy-17β-((5-(3-aminopropyl)-isoxazol-3-yl))androstane] |  |  |  | 7% | 2.508 ± 0.339 (n = 3) μmol/min/mg prot | 17%* | 2.751 ± 0.171 (n = 3) μmol/min/mg prot | 150 nM |  |
| C[C@]12CC[C@H](O)C[C@H]1CCC1C2CC[C@]2(C)[C@@H](CCc3cc(CCCN)on3)CC[C@]12O (stereo partly drawn) [CVie 108, 3β-hydroxy-5β-10β-methyl-13β-methyl-14β-hydroxy-17β-((5-(3-aminopropyl)-isoxazol-3-yl)-ethyl)androstane] |  | 15% | 2.94 ± 0.306 (n = 3) μmol/min/mg prot | 16%* | 2.980 ± 0.441 (n = 4) μmol/min/mg prot |  |  | 3300 nM |  |
| C[C@]12CC[C@H](O)C[C@H]1CCC1C2CC[C@]2(C)[C@@H](CCc3cc(CCN)on3)CC[C@]12O (some centres unmarked) [CVie 109] |  |  |  | 14% | 2.859 ± 0.504 (n = 4) μmol/min/mg prot | 15%* | 2.889 ± 0.305 (n = 4) μmol/min/mg prot | 1000 nM |  |
| C[C@]12CC[C@H](O)C[C@H]1CCC1C2CC[C@]2(C)[C@@H](/C=C/c3cc(CN)on3)CC[C@]12O (some centres unmarked) [CVie 110] | 330 nM | 19% | 2.924 ± 0.549 (n = 3) μmol/min/mg prot | 18%* | 2.903 ± 0.188 (n = 3) μmol/min/mg prot |  |  |  |  |
| C[C@]12CC[C@H](O)C[C@H]1CC[C@@H]1[C@@H]2C[C@@H](O)[C@]2(C)[C@@H](C3=CC(=O)OC3)CC[C@]12O [DIGOXIGENIN, Digoxigenin, reference compound] | 230 nM |  |  |  |  |  |  |  |  |
